Measurements published in paper PMC7395068, “The evolution of strategies to minimise the risk of human drug-induced liver injury (DILI) in drug discovery and development” (Archives of Toxicology, 2020).
Read-outs that look alike come from different tables or passages of the source.

How the values were obtained:
[1] = Plasma free fraction (fu) and unbound Cmax (Cmax,u); format: in vitro ADME, human; settings: unbound plasma Cmax
Method: The prediction of DILI severity was evaluated further using the 3D combined HCI assays using plasma-free fraction. The majority of fu values were obtained from literature, when unavailable in-house prediction was utilised. Unbound plasma Cmax concentrations (Cmax,u) were derived by multiplying total plasma Cmax with the corresponding free fraction (fu) for each compound.

HepG2 = system: HepG2; parameters: method as in Albrecht 2019; settings: In vitro Assay; ref Albrecht 2019; cited from earlier work
HepG2 cells [2] = settings: Structural based (HCI), HepG2; ref O'Brien et al. 2006; cited from earlier work
HepG2 cells [3] = settings: cited from earlier work
HepG2 cells [4] = settings: cited from earlier work; remark: listed apart in the source
[5] = system: THLE or HepG2 cells, isolated mitochondria, BSEP; settings: cited from earlier work
PHH [6] = settings: cited from earlier work
hLiMTs [7] = settings: cited from earlier work
[8] = system: HepG2 C3A spheroid, BSEP, Glu/Gal in HepG2 cells, bioactivation; settings: cited from earlier work
[9] = read-out: Human plasma Cmax; total plasma Cmax.tot, median of 9 literature references; cited from earlier work
[10] = plasma free fraction; cited from earlier work
[11] = cited from earlier work
PHH [12] = settings: In vitro Assay; ref Albrecht 2019; cited from earlier work
[13] = system: isolated mouse liver mitochondria; settings: In vitro Assay; ref Porceddu 2012; cited from earlier work
hLiMTs [14] = assay: Combined HCI (HCS) and cellular ATP 3D assay in hLiMTs; settings: for AC50 / minimal effective concentration: Homo sapiens
HepaRG spheroids = assay: Combined HCI (HCS) and cellular ATP 3D assay in HepaRG spheroids
[15] = In vitro Assay, ref Persson 2013
[16] = Modeled in vitro assays (cytotoxicity, mitochondrial dysfunction, BSEP), ref Aleo et al. 2019
[17] = In vitro Assay, ref Proctor 2017
[18] = Microtissue model structural based (HCI), combined HCS and ATP, MEC < 25 × Cmax.tot cut-off

## CC(=O)Oc1ccccc1C(=O)O [acetylsalicylic acid]
[1]
  Human plasma Cmax,u: 538.224 µM
HepG2
  Cytotoxicity HepG2 48 hrs: +VE
HepG2 cells [2]
  DILI in vitro assay prediction, O'Brien (2006): +VE (lowest HCI endpoint IC50 (or in the absence of dose–response < 100 µM) < 30 × total human plasma exposure levels (Cmax.tot))
HepG2 cells [3]; [15]
  Cluser analysis: -VE
  Structural based (HCI): -VE
HepG2 cells [3]; Structural based (HCI), HepG2, ref Persson et al. 2013
  DILI in vitro assay prediction, Persson (2013): -VE
HepG2 cells [4]; In vitro Assay, ref Tolosa 2012
  Structural based (HCI): +VE
HepG2 cells [4]; Structural based (HCI), HepG2, ref Tolosa et al. 2012
  DILI in vitro assay prediction, Tolosa (2012): +VE
[5]; In vitro Assay, ref Aleo 2019
  Partition Hybrid HRM Score: -VE
  Ro2 Hybrid HRM Score: -VE
[5]; [16]
  Partition Hybrid HRM Score ≥4, Aleo (2019): -VE
  Partition Hybrid HRM Score ≥8, Aleo (2019): -VE
  Rule of Two hybrid HRM Score ≥3, Aleo (2019): -VE
  Rule of Two hybrid HRM Score ≥8, Aleo (2019): -VE
PHH [6]; 2D PHH, ATP, IC50 < 100 × Cmax.tot, ref Proctor et al. 2017
  PHH/100xCmax, Proctor (2017): -VE
PHH [6]; 2D PHH, ATP, IC50 threshold 100 µM, ref Proctor et al. 2017
  PHH/100uM, Proctor (2017): -VE
PHH [6]; [17]
  PHH ATP <100uM: -VE
hLiMTs [7]; [17]
  hLiMTs ATP <100uM: -VE
hLiMTs [7]; hLiMTs, ATP, IC50 < 100 × Cmax.tot, ref Proctor et al. 2017
  hLiMTs/100xCmax, Proctor (2017): -VE
hLiMTs [7]; hLiMTs, ATP, IC50 threshold 100 µM, ref Proctor et al. 2017
  hLiMTs/100uM, Proctor (2017): -VE
[8]; Bayesian modeling, ref Williams et al. 2019
  Bayesian Machine Learning DILI prediction, Williams (2019): -VE
[8]; In vitro Assay, ref Williams 2019
  Bayesian Machine Learning: -VE
[9]
  Cmax: 1380 µM
[10]
  fu: 0.390
[11]; Chen et al. 2016 or literature alignment, ref Chen et al. 2016
  Assigned DILI category: 3
[11]; […]
  In vivo DILI: -VE
[11]; ref Albrecht 2019
  In vivo DILI: +VE
[11]; ref Aleo 2019
  In vivo DILI: +VE
[11]; ref Persson 2013
  In vivo DILI: +VE
[11]; ref Porceddu 2012
  In vivo DILI: +VE
[11]; ref Proctor 2017
  In vivo DILI: +VE
[11]; ref Tolosa 2012
  In vivo DILI: +VE
[11]; ref Williams 2019
  In vivo DILI: +VE
PHH [12]
  Cytotoxicity PHH 48 hrs: +VE
[13]
  in vitro data EC2<=1x Cmax: +VE
  in vitro data EC20<=2uM: -VE
hLiMTs [14]; read-out: ATP endpoint AC50
  AC50: 3.25 mM
hLiMTs [14]; read-out: ATP endpoint MEC
  minimal effective concentration: 2270 µM
hLiMTs [14]; read-out: HCS endpoint AC50
  AC50: 4.69 mM
hLiMTs [14]; read-out: HCS endpoint MEC
  minimal effective concentration: 1930 µM
hLiMTs [14]; [18]
  DILI prediction hLiMTs (HCS-MEC): +VE (MEC < 25 × Cmax.tot cut-off)
hLiMTs [14]; hLiMTs, ATP endpoint, cut-off <25x Avg Cmax
  hLiMTs <25x Avg Cmax ATP: +ve
hLiMTs [14]; hLiMTs, ATP endpoint, cut-off <100x Avg Cmaxu
  hLiMTs <100x Avg Cmaxu ATP: +ve (<100x Avg Cmaxu)
hLiMTs [14]; hLiMTs, HCS endpoints, cut-off <25x Avg Cmax
  hLiMTs <25x Avg Cmax HCS: +ve
hLiMTs [14]; hLiMTs, HCS endpoints, cut-off <100x Avg Cmaxu
  hLiMTs <100x Avg Cmaxu HCS: +ve (<100x Avg Cmaxu)
hLiMTs [14]; hLiMTs, all endpoints (ATP and HCS), cut-off <25x Avg Cmax
  hLiMTs <25x Avg Cmax All: +ve
hLiMTs [14]; hLiMTs, all endpoints, Cmax max used
  hLiMTs Cmax max All: +ve
hLiMTs [14]; hLiMTs, all endpoints, Cmax min used
  hLiMTs Cmax min All: +ve
hLiMTs [14]; hLiMTs, all endpoints, cut-off <10 uM
  hLiMTs <10 uM All: -ve
hLiMTs [14]; hLiMTs, all endpoints, cut-off <100x Avg Cmaxu
  hLiMTs <100x Avg Cmaxu All: +ve (<100x Avg Cmaxu)
HepaRG spheroids; HepaRG, ATP endpoint, cut-off <25x Avg Cmax
  HepaRG <25x Avg Cmax ATP: +ve
HepaRG spheroids; HepaRG, ATP endpoint, cut-off <100x Avg Cmaxu
  HepaRG <100x Avg Cmaxu ATP: +ve (<100x Avg Cmaxu)
HepaRG spheroids; HepaRG, HCS endpoints, cut-off <25x Avg Cmax
  HepaRG <25x Avg Cmax HCS: +ve
HepaRG spheroids; HepaRG, HCS endpoints, cut-off <100x Avg Cmaxu
  HepaRG <100x Avg Cmaxu HCS: +ve (<100x Avg Cmaxu)
HepaRG spheroids; HepaRG, all endpoints (ATP and HCS), cut-off <25x Avg Cmax
  HepaRG <25x Avg Cmax All: +ve
HepaRG spheroids; HepaRG, all endpoints, Cmax max used
  HepaRG Cmax max All: +ve
HepaRG spheroids; HepaRG, all endpoints, Cmax min used
  HepaRG Cmax min All: +ve
HepaRG spheroids; HepaRG, all endpoints, cut-off <10 uM
  HepaRG <10 uM All: -ve
HepaRG spheroids; HepaRG, all endpoints, cut-off <100x Avg Cmaxu
  HepaRG <100x Avg Cmaxu All: +ve (<100x Avg Cmaxu)
HepaRG spheroids; Homo sapiens, HepaRG, read-out: ATP endpoint AC50
  AC50: 1.63 mM
HepaRG spheroids; Homo sapiens, HepaRG, read-out: ATP endpoint MEC
  minimal effective concentration: 659 µM
HepaRG spheroids; Homo sapiens, HepaRG, read-out: HCS endpoint MEC
  minimal effective concentration: 1340 µM
HepaRG spheroids; [18]
  DILI prediction HepaRG spheroids (HCS-MEC): +VE (MEC < 25 × Cmax.tot cut-off)
